In PubChem BioAssay AID328 (DTP/NCI, 2004):
“And” between values parts separate entries of the source, which are not always exact repeats. Identical values can stand only once. Toxic doses and inconclusive results are not listed.

Tested on: BDF1 mice, P388 leukemia ip, median survival T/C
Experiment: NCI In Vivo Anticancer Drug Screen. Data for tumor model P388 Leukemia (intraperitoneal) in B6D2F1 (BDF1) mice
Details: endpoint: median survival time, higher = longer survival
Outline: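 Survival ratio, drug arm over vehicle arm, in mice with a transplanted tumour.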

[1] = dose: 12.5 mg/kg/injection, schedule: Q01DX009 (ip), vehicle: saline
[2] = dose: 25.0 mg/kg/injection, schedule: Q01DX009 (ip), vehicle: saline
[3] = dose: 50.0 mg/kg/injection, schedule: Q01DX009 (ip), vehicle: saline
[4] = dose: 100.0 mg/kg/injection, schedule: Q01DX009 (ip), vehicle: saline
[5] = dose: 100.0 mg/kg/injection, schedule: Q04DX003 (ip), vehicle: saline
[6] = dose: 200.0 mg/kg/injection, schedule: Q04DX003 (ip), vehicle: saline
[7] = dose: 50.0 mg/kg/injection, schedule: Q01DX009 (ip), vehicle: saline with Tween-80
[8] = dose: 100.0 mg/kg/injection, schedule: Q01DX009 (ip), vehicle: saline with Tween-80
[9] = dose: 200.0 mg/kg/injection, schedule: Q01DX009 (ip), vehicle: saline with Tween-80
[10] = dose: 25.0 mg/kg/injection, schedule: Q01DX009 (ip), vehicle: water
[11] = dose: 50.0 mg/kg/injection, schedule: Q01DX009 (ip), vehicle: water
[12] = dose: 100.0 mg/kg/injection, schedule: Q01DX009 (ip), vehicle: water
[13] = dose: 400.0 mg/kg/injection, schedule: Q01DX009 (ip), vehicle: water

Q: For `CC(O)C(=O)N1Cc2cc3ccccc3nc2C1` (stereo unspecified), which T/C (dose: 50.0 mg/kg/injection, schedule: Q01DX001 (ip), vehicle: saline sonified) is on record?
A: 95 % of control

Q: And the T/C (dose: 100.0 mg/kg/injection, schedule: Q01DX001 (ip), vehicle: saline sonified)?
A: 104 % of control

Q: And the T/C (dose: 200.0 mg/kg/injection, schedule: Q01DX001 (ip), vehicle: saline sonified)?
A: 95 % of control

Q: With `O=[N+]([O-])c1ccc(N2CCOCC2)c2c1no[n+]2[O-]` as the compound, how does the T/C (dose: 6.25 mg/kg/injection, schedule: Q01DX009 (ip), vehicle: saline) read?
A: 95 % of control

Q: And the T/C [1]?
A: 100 % of control

Q: And the T/C [2]?
A: 108 % of control

Q: And the T/C (dose: 32.0 mg/kg/injection, schedule: Q04DX003 (ip), vehicle: saline with Tween-80)?
A: 150 % of control

Q: And the T/C (dose: 64.0 mg/kg/injection, schedule: Q04DX003 (ip), vehicle: saline with Tween-80)?
A: 160 % of control

Q: Which T/C [3] does the source give for `C1CCNCC1.COc1ccccc1C(=O)[CH-]C(=O)C(F)(F)F.COc1ccccc1C(=O)[CH-]C(=O)C(F)(F)F.COc1ccccc1C(=O)[CH-]C(=O)C(F)(F)F.COc1ccccc1C(=O)[CH-]C(=O)C(F)(F)F.[Eu+3]` here?
A: 88 % of control

Q: And the T/C [4]?
A: 119 % of control

Q: `O=C(CNC(=O)c1cccc(C(=O)NCC(=O)Nc2ccc(C3=NCCN3)cc2)c1)Nc1ccc(C2=NCCN2)cc1` was tested. Which T/C (dose: 8.2 mg/kg/injection, schedule: Q01DX009 (ip), vehicle: saline) did it give?
A: 117 % of control

Q: What about the T/C [2] of the same compound?
A: 169 % of control

Q: What about the T/C [3] of the same compound?
A: 250 % of control

Q: How did the T/C (dose: 0.78 mg/kg/injection, schedule: Q01DX009 (ip), vehicle: Klucel (hydroxypropylcellulose) (HPC)) turn out when `N#CC(C#N)=C(C#N)C#N` was run?
A: 90 % of control

Q: What about the T/C (dose: 1.56 mg/kg/injection, schedule: Q01DX009 (ip), vehicle: Klucel (hydroxypropylcellulose) (HPC)) of the same compound?
A: 100 % of control

Q: What about the T/C (dose: 1.56 mg/kg/injection, schedule: Q04DX003 (ip), vehicle: Klucel (hydroxypropylcellulose) (HPC)) of the same compound?
A: 100 % of control

Q: What about the T/C (dose: 3.13 mg/kg/injection, schedule: Q01DX009 (ip), vehicle: Klucel (hydroxypropylcellulose) (HPC)) of the same compound?
A: 100 % of control

Q: And the T/C (dose: 3.13 mg/kg/injection, schedule: Q04DX003 (ip), vehicle: Klucel (hydroxypropylcellulose) (HPC))?
A: 100 % of control

Q: Which results are given for `CCCC(O)(CCC)CC1=NC(C)(C)CO1`?
A: T/C (dose: 75.0 mg/kg/injection, schedule: Q04DX003 (ip), vehicle: saline sonified): 110 % of control; T/C (dose: 150.0 mg/kg/injection, schedule: Q04DX003 (ip), vehicle: saline sonified): 105 % of control; T/C (dose: 300.0 mg/kg/injection, schedule: Q04DX003 (ip), vehicle: saline sonified): 100 % of control

Q: How did the T/C [1] turn out when `CC(C)n1cc2c(N)ncnc2n1` was run?
A: 92 % of control

Q: And the T/C [2]?
A: 92 % of control

Q: What about the T/C [3] of the same compound?
A: 100 % of control and 120 % of control

Q: And the T/C [4]?
A: 100 % of control

Q: And the T/C [5]?
A: 92 % of control

Q: What about the T/C [6] of the same compound?
A: 100 % of control

Q: For `CCOC(=O)c1c(C)cc(C)nc1[S][Sn]([Br])([Br])[S]c1nc(C)cc(C)c1C(=O)OCC`, which T/C [7] is on record?
A: 97 % of control

Q: And the T/C [8]?
A: 103 % of control

Q: And the T/C [9]?
A: 106 % of control

Q: Which results are given for `CCOC(=O)Cn1nc(-c2ccc([N+](=O)[O-])o2)sc1=O`?
A: T/C [7]: 110 % of control; T/C [8]: 94 % of control; T/C [9]: 117 % of control

Q: For `O=C(NC1CSSC1)C(Cc1ccccc1)N1C(=O)c2ccccc2C1=O` (stereo unspecified), which T/C [10] is on record?
A: 104 % of control

Q: And the T/C (dose: 25.0 mg/kg/injection, schedule: Q04DX003 (ip), vehicle: water)?
A: 90 % of control

Q: What about the T/C [11] of the same compound?
A: 95 % of control

Q: What about the T/C (dose: 50.0 mg/kg/injection, schedule: Q04DX003 (ip), vehicle: water) of the same compound?
A: 107 % of control

Q: And the T/C [12]?
A: 108 % of control

Q: What about the T/C (dose: 100.0 mg/kg/injection, schedule: Q04DX003 (ip), vehicle: water) of the same compound?
A: 98 % of control

Q: And the T/C (dose: 200.0 mg/kg/injection, schedule: Q01DX009 (ip), vehicle: water)?
A: 108 % of control

Q: And the T/C (dose: 200.0 mg/kg/injection, schedule: Q04DX003 (ip), vehicle: water)?
A: 100 % of control

Q: What about the T/C [13] of the same compound?
A: 100 % of control

Q: What about the T/C (dose: 400.0 mg/kg/injection, schedule: Q04DX003 (ip), vehicle: water) of the same compound?
A: 98 % of control

Q: Which T/C (dose: 150.0 mg/kg/injection, schedule: Q01DX009 (ip), vehicle: saline) does the source give for `CN1CCCCCC1` here?
A: 95 % of control

Q: What about the T/C (dose: 225.0 mg/kg/injection, schedule: Q01DX009 (ip), vehicle: saline) of the same compound?
A: 104 % of control

Q: And the T/C (dose: 335.0 mg/kg/injection, schedule: Q01DX009 (ip), vehicle: saline)?
A: 86 % of control

Q: `CN(C)c1ccc(-c2cc[n+](C)cc2)cc1` was tested. Which T/C (dose: 0.5 mg/kg/injection, schedule: Q01DX009 (ip), vehicle: saline) did it give?
A: 119 % of control

Q: What about the T/C (dose: 1.0 mg/kg/injection, schedule: Q01DX009 (ip), vehicle: saline) of the same compound?
A: 111 % of control

Q: What about the T/C (dose: 2.0 mg/kg/injection, schedule: Q01DX009 (ip), vehicle: saline) of the same compound?
A: 91 % of control

Q: What about the T/C (dose: 3.0 mg/kg/injection, schedule: Q01DX009 (ip), vehicle: saline) of the same compound?
A: 106 % of control

Q: And the T/C (dose: 6.0 mg/kg/injection, schedule: Q01DX009 (ip), vehicle: saline)?
A: 114 % of control

Q: What does the source list for `Cc1cccc(-n2nc3c(=O)n(C)c(=O)n(C)c3nc2=O)c1`?
A: T/C (dose: 100.0 mg/kg/injection, schedule: Q01DX001 (ip), vehicle: saline with Tween-80): 88 % of control; T/C (dose: 200.0 mg/kg/injection, schedule: Q01DX001 (ip), vehicle: saline with Tween-80): 96 % of control; T/C (dose: 400.0 mg/kg/injection, schedule: Q01DX001 (ip), vehicle: saline with Tween-80): 92 % of control

Q: How did the T/C [4] turn out when `CCCN1c2c(nc(N)[nH]c2=O)NCC1CNc1ccc(C(=O)NC(CCC(=O)O)C(=O)O)cc1` (stereo unspecified) was run?
A: 108 % of control

Q: And the T/C [5]?
A: 112 % of control

Q: And the T/C (dose: 200.0 mg/kg/injection, schedule: Q01DX009 (ip), vehicle: saline)?
A: 100 % of control

Q: What about the T/C [6] of the same compound?
A: 100 % of control

Q: What about the T/C (dose: 400.0 mg/kg/injection, schedule: Q01DX009 (ip), vehicle: saline) of the same compound?
A: 110 % of control

Q: What about the T/C (dose: 400.0 mg/kg/injection, schedule: Q04DX003 (ip), vehicle: saline) of the same compound?
A: 91 % of control

Q: With `CN1C2Oc3ccccc3C1Oc1ccccc12` as the compound, how does the T/C [7] read?
A: 112 % of control

Q: And the T/C [8]?
A: 99 % of control

Q: What about the T/C [9] of the same compound?
A: 99 % of control

Q: How did the T/C (dose: 100.0 mg/kg/injection, schedule: Q01DX001 (ip), vehicle: Klucel (hydroxypropylcellulose) (HPC)) turn out when `N#Cc1cccc(/C=C/C=C\c2ccc([N+](=O)[O-])cc2)c1` was run?
A: 95 % of control

Q: And the T/C (dose: 200.0 mg/kg/injection, schedule: Q01DX001 (ip), vehicle: Klucel (hydroxypropylcellulose) (HPC))?
A: 90 % of control

Q: And the T/C (dose: 400.0 mg/kg/injection, schedule: Q01DX001 (ip), vehicle: Klucel (hydroxypropylcellulose) (HPC))?
A: 90 % of control

Q: What does the source list for `COc1cc(C(=O)N2CCN(c3ccccc3)CC2)c2ccccc2n1`?
A: T/C (dose: 180.0 mg/kg/injection, schedule: Q01DX010 (ip), vehicle: carboxymethylcellulose (CMC)): 114 % of control; T/C (dose: 266.0 mg/kg/injection, schedule: Q01DX010 (ip), vehicle: carboxymethylcellulose (CMC)): 104 % of control; T/C (dose: 400.0 mg/kg/injection, schedule: Q01DX010 (ip), vehicle: carboxymethylcellulose (CMC)): 104 % of control; T/C (dose: 600.0 mg/kg/injection, schedule: Q01DX010 (ip), vehicle: carboxymethylcellulose (CMC)): 95 % of control

Q: Which T/C (dose: 25.0 mg/kg/injection, schedule: Q04DX003 (ip), vehicle: saline with Tween-80) does the source give for `O=NN(CCCl)C(=O)c1cc(Cl)cc(Cl)c1` here?
A: 104 % of control

Q: And the T/C (dose: 50.0 mg/kg/injection, schedule: Q04DX003 (ip), vehicle: saline with Tween-80)?
A: 104 % of control

Q: What about the T/C (dose: 100.0 mg/kg/injection, schedule: Q04DX003 (ip), vehicle: saline with Tween-80) of the same compound?
A: 100 % of control and 118 % of control

Q: And the T/C (dose: 200.0 mg/kg/injection, schedule: Q04DX003 (ip), vehicle: saline with Tween-80)?
A: 100 % of control and 104 % of control

Q: And the T/C (dose: 400.0 mg/kg/injection, schedule: Q04DX003 (ip), vehicle: saline with Tween-80)?
A: 100 % of control

Q: Which results are given for `CCOC(=O)/C=C/C(C(=O)OCC)C(=O)OCC`?
A: T/C (dose: 75.0 mg/kg/injection, schedule: Q04DX003 (ip), vehicle: saline with Tween-80): 95 % of control; T/C (dose: 150.0 mg/kg/injection, schedule: Q04DX003 (ip), vehicle: saline with Tween-80): 120 % of control

Q: For `NC(=S)N/N=C\c1c[nH]c2nccnc12`, which T/C [10] is on record?
A: 106 % of control

Q: What about the T/C [11] of the same compound?
A: 92 % of control

Q: And the T/C [12]?
A: 100 % of control

Q: What about the T/C [13] of the same compound?
A: 86 % of control
